Like-named read-outs stand apart in the source and are kept apart here. One block for each molecule: values may come before it.
What was measured:
[1] = test system: thrombin formation after resupply; assay: Synthetic coagulation proteome, resupply response (therapeutic anticoagulation); format: biochemical, human
Method: (§1) Synthetic Coagulation Model—The procedure used is a modification of Lawson et al. [Lawson, J. H., Kalafatis, M., Stram, S., and Mann, K. G. (1994) J. Biol. Chem. 269, 23357-23366] and van't Veer et al. [van't Veer, C. and Mann, K. G. (1997) J. Biol. Chem. 272, 4367-4377]. Relipidated Tf at 5 pM final concentration was added to a mixture of fII, fV, fVII, fVIIIa, fVIII, fIX, fX, fXI, TFPI, and AT (all at mean physiologic concentrations) (43) in 20 mM HEPES/150 mM NaCl (HBS) with 2 mM CaCl2 containing 2 μM PCPS. Pharmacologic agents were incorporated into the reaction mixture prior to addition of the Tf reagent. Resupply was conducted at 20 min post Tf initiation by the addition of an equal volume of a freshly constituted, Tf free mixture containing procofactors, zymogens and inhibitors in HBS with 2 mM CaCl2 and 2 μM PCPS to an ongoing reaction. Pharmacologic agents were present in the resupply mixture at twice their final concentration.
(§2) Thrombin generation over time was measured in a chromogenic assay using Spectrozyme TH and a THERMOmax microplate reader (Molecular Devices Corp., Menlo Park, Calif.). In experiments assessing the reversible thrombin inhibitor DAPA, rates of thrombin generation were calculated by reference to a standard curve relating thrombin concentration to rates of substrate hydrolysis in the presence of relevant DAPA concentrations.
Therapeutic Anticoagulation—We have previously reported that one outcome in closed model systems of Tf-initiated coagulation is the formation of a relatively stable prothrombin activating potential which responds to the introduction of a new supply of reactants with an immediate burst of thrombin production, i.e., a “resupply response” (see U.S. application Ser. No. 10/507,661). There is shown in FIGS. 32A-D and 33A-D computational (FIGS. 32A,C; FIGS. 33A,C) and representative empirical (FIGS. 32B,D; FIGS. 33B,D) assessments of the efficacy of each anticoagulant in suppressing the resupply response. Computational and empirical time courses of thrombin formation are shown for the final 5 min of the Tf-initiated process and for the resupply phase.

prothrombin = assay: Western blot of prothrombin consumption during resupply in the synthetic coagulation proteome; format: biochemical, human
Method: Gel Electrophoresis and Western Blotting—Resupply time course samples were quenched into an equal volume of 50 mM EDTA, 50 μM FPRck in HBS and 4 μl aliquots (potentially containing 100 ng prothrombin) were made 2% in SDS and 2% in β-mercaptoethanol and analyzed by SDS-PAGE. Protein species were separated on 4 to 12% linear gradient gel and transferred to nitrocellulose membranes (Bio-Rad Laboratories Inc., US). FII and its activation products were probed for using a polyclonal burro anti-human prethrombin 1 antibody. Reactive bands were detected using goat anti-equine horseradish peroxidase conjugated IgG (Southern Biotechnology, Birmingham Ala.) with a chemiluminescence reagent (Perkin Elmer, Boston Mass.) and Kodak X-OMat film.
Prothrombin Consumption during Resupply—In FIGS. 32B, 32D and 33D, the estimates of UFH, Fpx and DAPA efficacy potentially represent a combination of 2 modes of anticoagulant action: their relative reactivity toward preformed catalytic complexes and their direct inhibition of thrombin formed during the reaction. […]

[2] = test system: contact pathway inhibited blood; assay: Contact pathway inhibited whole blood, resupply; format: biochemical, human; settings: 160 nM C921-78
From the text: (§3) Whole Blood Model—The protocol used is a modification of Rand et al. [Orfeo, T., Butenas, S., Brummel-Ziedins, K. E., and Mann, K. G. (2005) J. Biol. Chem. 280, 42887-42896; Rand, M. D., Lock, J. B., van't Veer, C., Gaffney, D. P., and Mann, K. G. (1996) Blood 88, 3432-3445]. A healthy donor was recruited, advised according to a protocol approved by the University of Vermont Human Studies Committee and their consent was obtained. […] Blood was drawn by venipuncture and immediately delivered into the reagent-loaded tubes. In general, 2 sets of aliquots of CTI treated blood were initiated with […] Tf reagent. One set was quenched at 1 min intervals while the other was incubated for 20 min. […] This resupply blood contained CTI alone (0.1 mg/ml), CTI+2 uM fondaparinux or CTI+320 nM C921-78. After the experiment, the tubes are centrifuged and the supernatants are aliquoted and analyzed for TAT levels. A subset of tubes containing either Fpx or C921-78 were initiated with 5 pM Tf reagent, quenched at 20 min and analyzed for TAT levels.
(§4) Anticoagulant Efficacy in Whole Blood—To test whether results from the computational and proteome based analyses would extrapolate to a more complex empirical model, the efficacy of anticoagulants in suppressing thrombin generation was addressed in contact pathway inhibited blood in both Tf-initiated and resupply regimens. […]

fXa in prothrombinase = fXa in prothrombinase (Homo sapiens, UniProt P00742); settings: cited from earlier work
[3] = test system: Tf-initiated thrombin formation; assay: Synthetic coagulation proteome, Tf-initiated thrombin generation (prophylactic anticoagulation); format: biochemical, human
From the text: Materials—Human coagulation fVII, fX, fIX, and prothrombin (fII), were isolated from fresh frozen plasma using the methods of Bajaj et al., and were purged of traces of active enzymes. FXI was purified using the monoclonal anti-fXI antibody α-fXI-2. Human fV and AT were isolated from freshly frozen plasma. The following were provided as gifts: recombinant fVIII and recombinant Tf (residues 1-242); recombinant human fVIIa; and recombinant full-length tissue factor pathway inhibitor (TFPI). Corn trypsin inhibitor (CTI) was isolated from popcorn. The preparation of the Tf/lipid reagent was performed. 1,2-Dioleolyl-sn-Glycero-3-Phospho-L-Serine (PS) and 1,2-Dioleoyl-sn-Glycero-3-Phosphocholine (PC) were purchased from Avanti Polar Lipids, Inc (Alabaster, Ala.), and EDTA was purchased from Sigma (St Louis, Mo.). Phospholipid vesicles (PCPS) composed of 75% PC and 25% PS and were prepared.
as §1, §2
Incorporation of Anticoagulants into the Mathematical Model—FIG. 27 presents the sets of equations describing the mechanisms of action of each of the anticoagulants used in this study and FIG. 28 presents the rate constants controlling the identified bimolecular interactions and the dosing ranges recommended for prophylactic and therapeutic applications. Details of modeling the various anticoagulant interactions are described herein and in the Methods section. Prophylactic Anticoagulation—There is shown in FIGS. 30A and 30 C computational assessments and in FIGS. 30B and D empirical assessments of the efficacy of each anticoagulant in suppressing the onset of Tf-initiated thrombin formation. In both empirical and computational studies, a 5 pM Tf reagent stimulus was used and thrombin generation assessed over 20 min. Results are presented that compare thrombin generation in the absence of anticoagulant (♦) to that observed over the range of anticoagulant concentrations that drive the transition from partial to maximum suppression of thrombin formation. […]

[4] = test system: contact pathway inhibited blood; assay: Contact pathway inhibited whole blood, Tf-initiated TAT formation; format: biochemical, human; settings: increasing concentrations incorporated into blood prior to Tf (5 pM)
From the text: as §3, §4

fXa = fXa (Homo sapiens, UniProt P00742); settings: cited from earlier work
[5] = molecular target: thrombin and meizotirombin (mIIa); settings: cited from earlier work
[6] = Light scattering measurement of Protein S depolymerization on Ca++ addition; format: physicochemical
From the text: Open squares: commercial PS and closed squares: in-house PS.
In regards to Protein S (PS) a Tf-based assay for PS in CTI-inhibited recalcified PS deficient plasma was developed. […] Dilutions of a normal plasma pool fall on this curve (open symbols). […] The convergence of plasma dilution data with the purified protein curve lends support of the preservation of natural PS quality in the material we isolate. The rate of depolymerization of Ca^++ free PS upon addition of Ca^++ using light scattering (FIG. 26B) was evaluated.

fVIIa = molecular target: T1, fVIIa (Homo sapiens, UniProt P08709); assay: Factor VIIa titrations of Tf proteins in the absence of lipid; format: biochemical; settings: in complex with fVIIa, Tf 0.1 nM, no lipid
T1 construct: Novo Nordisk (gift)
Method: FIG. 24 is a graphical view of factor VIIa titrations of recombinant Tf (rTf) 1-263, rTf 1-242 and human placental Tf (all at 0.1 nM) in the absence of lipid.
Reports of physical studies of Tf have made use of SDS-PAGE, amino acid analyses and presumed stoichiometry of binding. In a most recent review, a Tf molecular weight of 47 kDa is cited, introducing a 30% error for any experimental physical parameter regarding Tf and its interactions. Tf proteins are distinguished by functional activities in simple as well as in complex reaction systems (FIGS. 24, 25).

thrombin generation = assay: Thrombin generation in reconstituted coagulation platelet proteome; format: biochemical, human
From the text: FIG. 25 is a graphical view of thrombin generation in synthetic plasma with platelets (2×10^8/ml). Notice monocyte in situ and monocyte purified.

T1 sequence (P08709 213-466 limits assumed, one chain of several): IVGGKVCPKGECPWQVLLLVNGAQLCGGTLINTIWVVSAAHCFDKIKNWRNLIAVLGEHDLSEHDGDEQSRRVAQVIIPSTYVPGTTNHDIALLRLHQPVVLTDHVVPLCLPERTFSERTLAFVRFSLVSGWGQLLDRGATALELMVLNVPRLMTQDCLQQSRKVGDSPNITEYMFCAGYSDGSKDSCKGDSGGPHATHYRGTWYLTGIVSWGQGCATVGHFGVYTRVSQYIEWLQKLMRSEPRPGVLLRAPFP
T1 sequence (P08709 61-212 partner limits assumed, one chain of several): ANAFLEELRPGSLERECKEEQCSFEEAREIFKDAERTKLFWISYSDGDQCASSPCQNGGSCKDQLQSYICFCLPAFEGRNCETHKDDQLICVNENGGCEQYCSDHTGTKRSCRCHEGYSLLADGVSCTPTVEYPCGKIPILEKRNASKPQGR
Chain of fXa (P00742 235-488 limits assumed): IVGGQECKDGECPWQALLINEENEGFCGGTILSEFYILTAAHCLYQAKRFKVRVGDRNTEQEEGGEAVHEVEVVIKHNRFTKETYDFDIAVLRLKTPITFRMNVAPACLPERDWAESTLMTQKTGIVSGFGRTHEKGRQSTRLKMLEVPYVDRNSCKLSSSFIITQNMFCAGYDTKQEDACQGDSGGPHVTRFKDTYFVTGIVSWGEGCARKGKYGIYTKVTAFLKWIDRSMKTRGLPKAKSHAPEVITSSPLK
Chain of fXa (P00742 41-179 partner limits assumed): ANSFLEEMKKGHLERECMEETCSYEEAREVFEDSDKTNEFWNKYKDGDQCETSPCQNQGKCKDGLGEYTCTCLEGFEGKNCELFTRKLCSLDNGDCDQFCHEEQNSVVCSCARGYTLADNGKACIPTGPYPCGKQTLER
Chain of fXa in prothrombinase (P00742 235-488 limits assumed): as the sequence (P00742 235-488 limits assumed) above
Chain of fXa in prothrombinase (P00742 41-179 partner limits assumed): as the sequence (P00742 41-179 partner limits assumed) above
Chain of fXa in prothrombinase (P12259 29-737 partner limits assumed): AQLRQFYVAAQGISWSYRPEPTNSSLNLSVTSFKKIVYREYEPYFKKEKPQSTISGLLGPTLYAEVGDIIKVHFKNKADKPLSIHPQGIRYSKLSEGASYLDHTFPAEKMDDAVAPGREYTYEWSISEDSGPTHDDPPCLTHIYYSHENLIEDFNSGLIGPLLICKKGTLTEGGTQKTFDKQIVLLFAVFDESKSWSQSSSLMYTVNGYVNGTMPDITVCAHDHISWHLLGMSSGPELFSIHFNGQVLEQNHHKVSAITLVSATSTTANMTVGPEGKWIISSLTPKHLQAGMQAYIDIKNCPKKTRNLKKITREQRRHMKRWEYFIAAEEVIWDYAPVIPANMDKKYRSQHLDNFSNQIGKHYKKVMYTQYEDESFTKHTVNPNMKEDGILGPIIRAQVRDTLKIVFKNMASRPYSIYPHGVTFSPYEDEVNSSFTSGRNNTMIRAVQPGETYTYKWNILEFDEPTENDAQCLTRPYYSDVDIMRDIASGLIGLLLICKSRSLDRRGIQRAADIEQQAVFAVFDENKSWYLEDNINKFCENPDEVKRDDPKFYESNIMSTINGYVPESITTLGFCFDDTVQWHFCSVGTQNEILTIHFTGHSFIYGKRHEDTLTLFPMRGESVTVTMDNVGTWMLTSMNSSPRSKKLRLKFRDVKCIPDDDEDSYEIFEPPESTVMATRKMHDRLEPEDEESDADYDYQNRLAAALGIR
Chain of fXa in prothrombinase (P12259 1574-2224 partner limits assumed): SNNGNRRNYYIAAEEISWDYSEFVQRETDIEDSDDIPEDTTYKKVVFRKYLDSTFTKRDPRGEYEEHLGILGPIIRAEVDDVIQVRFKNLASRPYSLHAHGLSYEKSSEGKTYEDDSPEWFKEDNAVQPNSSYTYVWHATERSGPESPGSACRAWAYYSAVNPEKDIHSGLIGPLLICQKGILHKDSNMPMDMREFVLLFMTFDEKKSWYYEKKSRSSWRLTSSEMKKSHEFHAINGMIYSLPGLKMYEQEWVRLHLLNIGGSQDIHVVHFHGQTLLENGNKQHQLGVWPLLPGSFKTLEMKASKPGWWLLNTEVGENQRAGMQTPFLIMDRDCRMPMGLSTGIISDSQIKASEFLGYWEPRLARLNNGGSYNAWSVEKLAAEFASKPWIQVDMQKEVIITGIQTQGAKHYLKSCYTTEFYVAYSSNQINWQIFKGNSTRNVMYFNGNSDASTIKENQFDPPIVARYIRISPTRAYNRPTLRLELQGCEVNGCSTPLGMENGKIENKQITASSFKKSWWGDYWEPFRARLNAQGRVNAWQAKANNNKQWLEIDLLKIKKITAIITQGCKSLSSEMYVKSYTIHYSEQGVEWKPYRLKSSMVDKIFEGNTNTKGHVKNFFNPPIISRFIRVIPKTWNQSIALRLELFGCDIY

Molecule: N=C(N)NCCCC(NS(=O)(=O)c1ccccc1)C(=O)NCC(=O)NC(CCCNC(=N)N)C(=O)c1nccs1 [C921-78, Benzenesulfonyl-D-Arg-Gly-Arg-ketothiazole]
maximum thrombin levels ([1]; 70 nM C921-78): 35 nM | time of maximum thrombin level post resupply ([1]; 70 nM C921-78): 4 min | maximum thrombin levels ([1]; 100 nM C921-78): ~25 nM | time of maximum thrombin level post resupply ([1]; 100 nM C921-78): 10 min | delay of thrombin generation ([1]; 160 nM C921-78): 11 min | maximum thrombin levels ([1]; 160 nM C921-78): 14 nM | prothrombin consumption at 15 min (prothrombin; 160 nM C921-78, densitometric analyses): ~10% | prothrombin consumption (immunoblots) [2]: minimal | Kd (fXa in prothrombinase): 0.022 nM | displacing the onset of thrombin generation ([3]; 1 nM C921-78): somewhat more effective than computationally predicted | effects on maximum rate and concentrations of IIa ([3]; 1 nM C921-78): minimal effects | thrombin generation ([3]; 10 nM C921-78): completely suppressed | TAT levels at 20 min [4]: decreases in TAT levels | Kd (fXa): ~0.014 nM

Molecule: CCC1CCN(C(=O)C(CCCNC(=N)N)NS(=O)(=O)c2cccc3c(N(C)C)cccc23)CC1 (stereo not shown) [DAPA, dansylarginine-N-[3-ethyl-1,5-pentanediyl]amide]
difference in rate or maximum final level of IIa=DAPA between the 2 DAPA concentrations ([1]; 10 μM vs 100 μM DAPA): No substantial difference in rate or maximum final level | blocking prothrombin consumption in the resupply format (prothrombin; DAPA): completely ineffective | Kd ([5]; thrombin and meizothrombin): 20 to 40 nM | Kd ([5]; value used in the model (FIG. 27)): 40 nM | effect on prothrombin consumption ([3]; 20 μM DAPA): only attenuating the maximum rate of prothrombin consumption | total prothrombin consumption ([3]; 100 μM DAPA): ~20 nM

Molecule: PS: purified in-house Protein S preparation
half time of depolymerization of Ca++ free PS upon addition of Ca++ ([6]; 25° C.): approximately 100 s

Molecule: commercial preparation of PS (ERL): commercial preparation of Protein S (ERL)
depolymerization behavior ([6]; commercial preparation (ERL)): does not show this depolymerization behavior

Kd compared with the recombinant proteins (fVIIa): lower Kd
Molecule: placental Tf: natural human placental tissue factor isolated by monoclonal antibody procedure
Vmax compared with the recombinant proteins (fVIIa): higher Vmax

B1: monocyte Tf: tissue factor from THP-1 monocytes after stimulation with LPS (protein, UniProt P13726 33-295, looked up)
Tissue factor: SGTTNTVAAYNLTWKSTNFKTILEWEPKPVNQVYTVQISTKSGDWKSKCFYTTDTECDLTDEIVKDVKQTYLARVFSYPAGNVESTGSAGEPLYENSPEFTPYLETNLGQPTIQSFEQVGTKVNVTVEDERTLVRRNNTFLSLRDVFGKDLIYTLYYWKSSSSGKKTAKTNTNEFLIDVDKGENYCFSVQAVIPSRTVNRKSTDSPVECMGQEKGEFREIFYIIGAVVFVVIILVIILAISLHKCRKAGVGQSWKENSPLNVS
activity relative to monocyte Tf reconstituted on synthetic membranes (thrombin generation): ~400 ×

From patent publication US20090298103A1, “Predicting hemostatic risk; dependence on plasma composition” (The University of Vermont and State Agriculture College, priority 2008, published 2009)
